Results taken from patent US20060069132A1, “Azolecarboxamide herbicides” (priority 2004, published 2006).

Assays:
[1] = test system: common (oilseed) sunflower; experiment: Test C pre-/postemergence herbicide test; assay type: in vivo, Helianthus annuus; settings: preemergence; for Plant response rating (0 = no effect, 100 = complete control), Sunflower: 62 g ai/ha
Procedure, shortened: (§1)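 Visual injury scores run from 0 (no effect) to 100 (complete control), assessed relative to untreated controls 12 to 14 days after treatment in the greenhouse. Chemicals were formulated in a non-phytotoxic solvent mixture with surfactant and applied to soil after planting or to emerged plants at the 1- to 4-leaf stage.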

goosegrass = experiment: Test C pre-/postemergence herbicide test; assay type: in vivo, Eleusine indica
Procedure, shortened: as §1

morningglory = experiment: Test A pre-/postemergence herbicide test; assay type: in vivo, Ipomoea spp.; settings: for Plant response rating, Morningglory: Postemergence; for Morningglory plant response rating: Preemergence
Procedure, shortened: (§2)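 Pre: seeded sandy loam, directed soil spray, compound in non-phytotoxic solvent + surfactant. Post: 1–2-leaf plants (2–10 cm), sprayed to runoff. Greenhouse ~10 d; visual injury vs untreated, 0–100 scale.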

soybean = experiment: Test C pre-/postemergence herbicide test; assay type: in vivo, Glycine max
Procedure, shortened: as §1

yellow nutsedge = experiment: Test C pre-/postemergence herbicide test; assay type: in vivo, Cyperus esculentus
Procedure, shortened: as §1

velvetleaf [2] = experiment: Test C pre-/postemergence herbicide test; assay type: in vivo, Abutilon theophrasti
Procedure, shortened: as §1

lambsquarters = experiment: Test C pre-/postemergence herbicide test; assay type: in vivo, Chenopodium album
Procedure, shortened: as §1

cocklebur = experiment: Test C pre-/postemergence herbicide test; assay type: in vivo, Xanthium strumarium
Procedure, shortened: as §1

velvetleaf [3] = experiment: Test A pre-/postemergence herbicide test; assay type: in vivo, Abutilon theophrasti; settings: for Plant response rating, Velvetleaf: Postemergence; for Velvetleaf plant response rating: Preemergence
Procedure, shortened: as §2

[4] = 125 g ai/ha, scale 0 (no effect) to 100 (complete control), visual, 12 to 14 days
[5] = 31 g ai/ha, preemergence, scale 0 to 100
[6] = 125 g ai/ha, scale 0 (no effect) to 100 (complete control), visual, 12 to 14 days, preemergence
[7] = Postemergence, 125 g ai/ha, scale 0 to 100, 0 no effect, 100 complete control
[8] = postemergence, 62 g ai/ha, scale 0 to 100
[9] = 500 g ai/ha, 0 to 100 scale, 0 no effect, 100 complete control
[10] = 2000 g ai/ha, 0 to 100 scale, 0 no effect, 100 complete control
[11] = 500 g ai/ha, visual rating, 0 to 100 scale (0 no effect, 100 complete control)
[12] = postemergence, 125 g ai/ha, scale 0 to 100
[13] = 250 g ai/ha, scale 0 to 100 (0 no effect, 100 complete control), visual, 12 to 14 days, preemergence
[14] = Postemergence, 250 g ai/ha, scale 0 to 100, 0 no effect, 100 complete control

**Q.** What does the source list for `CCNC(=O)c1cccc(NC(=O)c2cc(C(C)(C)C)nn2CCF)c1` [Compound 35]?
**A.** Plant response rating, Sunflower ([1]; 31 g ai/ha, scale 0 to 100): 10; Plant response rating (0 = no effect, 100 = complete control), Sunflower [1]: 10; Plant response rating, Sunflower [1, 4]: 10; Plant response rating, Goosegrass (goosegrass; [5]): 20; Plant response rating (0 = no effect, 100 = complete control), Goosegrass (goosegrass; 62 g ai/ha, preemergence): 30; Plant response rating, Goosegrass (goosegrass; [6]): 70; Plant response rating, Goosegrass (goosegrass; [7]): 50; Plant response rating, Goosegrass (goosegrass; [8]): 40; Plant response rating, Morningglory (morningglory; [9]): 10; Plant response rating, Morningglory (morningglory; [10]): 10; Morningglory plant response rating (morningglory; [11]): 25; Morningglory plant response rating (morningglory; [10]): 85; Plant response rating, Soybean (soybean; [5]): 0; Plant response rating (0 = no effect, 100 = complete control), Soybean (soybean; 62 g ai/ha, preemergence): 0; Plant response rating, Soybean (soybean; [6]): 0; Plant response rating, Soybean (soybean; [12]): 90; Plant response rating, Soybean (soybean; [8]): 90; Plant response rating, Nutsedge, Yellow (yellow nutsedge; 16 g ai/ha, scale 0 to 100, last section of Table C, preemergence): 0; Plant response rating, Nutsedge, Yellow (yellow nutsedge; [5]): 0; Plant response rating (0 = no effect, 100 = complete control), Nutsedge, Yellow (yellow nutsedge; 62 g ai/ha, preemergence): 0; Plant response rating, Nutsedge, Yellow (yellow nutsedge; [6]): 0; Plant response rating, Nutsedge, Yellow (yellow nutsedge; [12]): 0; Plant response rating, Nutsedge, Yellow (yellow nutsedge; [8]): 0; Plant response rating, Velvetleaf (velvetleaf [2]; [5]): 0; Plant response rating (0 = no effect, 100 = complete control), Velvetleaf (velvetleaf [2]; 62 g ai/ha, preemergence): 100; Plant response rating, Velvetleaf (velvetleaf [2]; [6]): 100; Plant response rating, Velvetleaf (velvetleaf [2]; [12]): 80; Plant response rating, Velvetleaf (velvetleaf [2]; [8]): 70; Plant response rating, Lambsquarters (lambsquarters; [5]): 0; Plant response rating (0 = no effect, 100 = complete control), Lambsquarters (lambsquarters; 62 g ai/ha, preemergence): 90; Plant response rating, Lambsquarters (lambsquarters; [6]): 100; Plant response rating, Lambsquarters (lambsquarters; [12]): 90; Plant response rating, Lambsquarters (lambsquarters; [8]): 90; Plant response rating, Cocklebur (cocklebur; [5]): 0; Plant response rating (0 = no effect, 100 = complete control), Cocklebur (cocklebur; 62 g ai/ha, preemergence): 0; Plant response rating, Cocklebur (cocklebur; [6]): 20; Plant response rating, Cocklebur (cocklebur; [7]): 70; Plant response rating, Cocklebur (cocklebur; postemergence, 16 g ai/ha, scale 0 to 100): 20; Plant response rating, Cocklebur (cocklebur; postemergence, 31 g ai/ha, scale 0 to 100): 20; Plant response rating, Cocklebur (cocklebur; [8]): 60; Plant response rating, Velvetleaf (velvetleaf [3]; [9]): 25; Plant response rating, Velvetleaf (velvetleaf [3]; [10]): 40; Velvetleaf plant response rating (velvetleaf [3]; [11]): 35; Velvetleaf plant response rating (velvetleaf [3]; [10]): 95

**Q.** `CCn1nc(C(C)(C)C)cc1C(=O)Nc1cccc(C(=O)NC2CC2)c1` [Compound 44] was tested. Which “Plant response rating (0 = no effect, 100 = complete control), Sunflower” value [1] did it give?
**A.** Its value is 0.

**Q.** And the “Plant response rating, Sunflower” value [1, 4]?
**A.** Its value is 0.

**Q.** And the “Plant response rating, Sunflower” value ([1]; 250 g ai/ha, scale 0 to 100 (0 no effect, 100 complete control), visual, 12 to 14 days)?
**A.** Its value is 0.

**Q.** And the “Plant response rating (0 = no effect, 100 = complete control), Goosegrass” value (goosegrass; 62 g ai/ha, preemergence)?
**A.** Its value is 10.

**Q.** And the “Plant response rating, Goosegrass” value (goosegrass; [6])?
**A.** The value was 30.

**Q.** What about the “Plant response rating, Goosegrass” value (goosegrass; [13]) of the same compound?
**A.** Its value is 50.

**Q.** What about the “Plant response rating, Goosegrass” value (goosegrass; [7]) of the same compound?
**A.** Its value is 40.

**Q.** What about the “Plant response rating, Goosegrass” value (goosegrass; [14]) of the same compound?
**A.** The value was 50.

**Q.** And the “Plant response rating, Goosegrass” value (goosegrass; [8])?
**A.** The value was 40.

**Q.** And the “Plant response rating, Morningglory” value (morningglory; [9])?
**A.** Its value is 15.

**Q.** What about the “Plant response rating, Morningglory” value (morningglory; [10]) of the same compound?
**A.** Its value is 45.

**Q.** What about the “Morningglory plant response rating” value (morningglory; [11]) of the same compound?
**A.** The value was 10.

**Q.** What about the “Morningglory plant response rating” value (morningglory; [10]) of the same compound?
**A.** The value was 30.

**Q.** And the “Plant response rating (0 = no effect, 100 = complete control), Soybean” value (soybean; 62 g ai/ha, preemergence)?
**A.** The value was 0.

**Q.** And the “Plant response rating, Soybean” value (soybean; [6])?
**A.** The value was 10.

**Q.** What about the “Plant response rating, Soybean” value (soybean; [13]) of the same compound?
**A.** Its value is 10.

**Q.** What about the “Plant response rating, Soybean” value (soybean; [14]) of the same compound?
**A.** Its value is 100.

**Q.** What about the “Plant response rating, Soybean” value (soybean; [8]) of the same compound?
**A.** Its value is 100.

**Q.** And the “Plant response rating (0 = no effect, 100 = complete control), Nutsedge, Yellow” value (yellow nutsedge; 62 g ai/ha, preemergence)?
**A.** The value was 0.

**Q.** And the “Plant response rating, Nutsedge, Yellow” value (yellow nutsedge; [6])?
**A.** Its value is 0.

**Q.** And the “Plant response rating, Nutsedge, Yellow” value (yellow nutsedge; [13])?
**A.** The value was 0.

**Q.** And the “Plant response rating, Nutsedge, Yellow” value (yellow nutsedge; [14])?
**A.** Its value is 20.

**Q.** What about the “Plant response rating, Nutsedge, Yellow” value (yellow nutsedge; [8]) of the same compound?
**A.** Its value is 20.

**Q.** And the “Plant response rating (0 = no effect, 100 = complete control), Velvetleaf” value (velvetleaf [2]; 62 g ai/ha, preemergence)?
**A.** The value was 70.

**Q.** And the “Plant response rating, Velvetleaf” value (velvetleaf [2]; [6])?
**A.** Its value is 70.

**Q.** What about the “Plant response rating, Velvetleaf” value (velvetleaf [2]; [13]) of the same compound?
**A.** The value was 70.

**Q.** What about the “Plant response rating, Velvetleaf” value (velvetleaf [2]; [8]) of the same compound?
**A.** The value was 60.

**Q.** And the “Plant response rating (0 = no effect, 100 = complete control), Lambsquarters” value (lambsquarters; 62 g ai/ha, preemergence)?
**A.** Its value is 90.

**Q.** And the “Plant response rating, Lambsquarters” value (lambsquarters; [6])?
**A.** Its value is 100.

**Q.** What about the “Plant response rating, Lambsquarters” value (lambsquarters; [13]) of the same compound?
**A.** The value was 100.

**Q.** And the “Plant response rating, Lambsquarters” value (lambsquarters; [14])?
**A.** The value was 90.

**Q.** And the “Plant response rating, Lambsquarters” value (lambsquarters; [8])?
**A.** The value was 90.

**Q.** What about the “Plant response rating (0 = no effect, 100 = complete control), Cocklebur” value (cocklebur; 62 g ai/ha, preemergence) of the same compound?
**A.** Its value is 0.

**Q.** What about the “Plant response rating, Cocklebur” value (cocklebur; [13]) of the same compound?
**A.** The value was 0.

**Q.** What about the “Plant response rating, Cocklebur” value (cocklebur; [7]) of the same compound?
**A.** The value was 70.

**Q.** What about the “Plant response rating, Cocklebur” value (cocklebur; [14]) of the same compound?
**A.** Its value is 70.

**Q.** What about the “Plant response rating, Cocklebur” value (cocklebur; [8]) of the same compound?
**A.** The value was 50.

**Q.** What about the “Plant response rating, Velvetleaf” value (velvetleaf [3]; [10]) of the same compound?
**A.** Its value is 65.

**Q.** And the “Velvetleaf plant response rating” value (velvetleaf [3]; [11])?
**A.** The value was 20.

**Q.** And the “Velvetleaf plant response rating” value (velvetleaf [3]; [10])?
**A.** Its value is 35.
